Laboratory results as given in US20160324992A1, “IDENTIFICATION AND TREATMENT OF VULNERABLE PLAQUES” (OTTAWA HEART INSTITUTE RESEARCH CORPORATION, priority 2015, published 2016).
Read-outs that look alike come from different tables or passages of the source. Residues, ends and D or L forms follow the SMILES beside them. *: point of attachment. Cbz = O=C(OCc1ccccc1)*; CH2F = FC*

What was measured:
[1] = test system: ApoE−/− mice with established atherosclerosis; experiment: Atherosclerosis study: time-release pellets in Western diet fed ApoE−/− mice; format: in vivo, mouse
Description: Atherosclerosis Studies. All animal experiments were performed in accordance with the Animal Care and Use Committee, University of Ottawa, Canada. Eight week old Apo E^−/− mice (total n=17 mice) were fed an adjusted calories diet (21% fat; 0.2% cholesterol, Harlan Teklad) for 4 weeks to induce atherosclerotic progression. Mice were then injected with time-release placebo or Nec-1s tablets (2 mg/kg/day), which were synthesized by Innovative Research of America, USA. Mice were euthanized after 6 weeks of treatment, perfused with saline and aortic roots were embedded in OCT medium and frozen. Aortic roots were sectioned (10 μm) and stained with hematoxylin and eosin for lesion area and necrotic core quantification, and a minimum of 10 sections per animal were measured across the length of the entire aortic root. For en face aortic lesion quantifications, aortas were dissected removing all branching vessels down to the femoral bifurcation and then sliced ventrally and images of aortas were digitally captured using ImagePro™. Lesion areas within the entire length of the aorta were quantified using Image J™ and expressed relative to the total aortic surface area. Immunohistochemistry for vascular smooth muscle cells was performed using a primary antibody for a-smooth muscle actin (monoclonal, Sigma) conjugated to alkaline phosphatase and visualized using SigmaFAST Red (Sigma). Statistical significance between the two groups were analyzed using Students' t-test (p<0.05).
Atherosclerosis Studies. All animal experiments were performed in accordance with the Animal Care and Use Committee, University of Ottawa, Canada. Eight week old apoE−/− mice (total n=17 mice) were fed an adjusted calories diet (21% fat; 0.2% cholesterol, Harlan Teklad) for 4 weeks to induce atherosclerotic progression. Mice were then injected with time-release placebo or stable Necrostatin-1 (Nec-1)15 tablets (2 mg/kg/day), which were synthesized by Innovative Research of America, USA. Mice were euthanized after 6 weeks of treatment, perfused with saline and aortic roots were embedded in OCT medium and frozen. Aortic roots were sectioned (10 μm) and stained with hematoxylin and eosin for lesion area and necrotic core quantification, and a minimum of 10 sections per animal were measured across the length of the entire aortic root. For en face aortic lesion quantifications, aortas were dissected removing all branching vessels down to the femoral bifurcation and then sliced ventrally and images of aortas were digitally captured using ImageProTM. Lesion areas within the entire length of the aorta were quantified using Image JTM and expressed relative to the total aortic surface area. Immunohistochemistry to visualize macrophages and smooth muscle cells was performed using primary antibodies to CD68 (rat monoclonal, Serotec) or phosho-MLKL (rabbit polyclonal, Abcam) with a secondary conjugated to biotin and α-smooth muscle actin (monoclonal, Sigma) conjugated to alkaline phosphatase and visualized using DAB or SigmaFAST Red (Sigma), respectively. Image J was used to quantify positive staining area and statistical significance between the two groups were analyzed using Students' t-test (p<0.05)

[2] = test system: bone-marrow-derived macrophages (BMDMs); format: cell-based; settings: BMDMs
Description: (§1) Bone-marrow derived macrophages. Bone-marrow derived macrophages (BMDMs) were isolated from femurs of adult VVT or Rip3^−/− mice and differentiated into macrophages using DMEM supplemented with 10% FBS and 1% penicillin-streptomycin plus either 20% L929 conditioned media or 20 ng/mL mouse M-CSF for 7-10 days. To polarize macrophages to M1 or M2, BMDMs were incubated on day 7 with 1 μg/mL LPS and 100 ng/mL IFNγ or 10 ng/mL IL-4 respectively for 24 h. Damage Associated Molecular Patterns (DAMPs) were obtained by subjecting BMDMs to 3×30 min freeze-thaw cycle or treatment with 100 ng/mL LPS and 50 μM zVAD.fmk for 24 hours, after which the media was collected and added to naïve cells at indicated ratios.
(§2) Cell viability assays. Cell death was determined by measuring lactate dehydrogenase (LDH) release into the media. Briefly, cells were treated with 100 μg/ml oxLDL in the presence or absence of 25 μM zVAD.fmk or 50 μM necrostatin-1 (Nec-1) for 24 hours and media was collected and centrifuged to pellet cell debris. The amount of LDH in media was measured in a kinetic assay by adding PBS containing 0.02% NADH and 0.03% sodium pyruvate and measuring absorbance at 340 nm for 10 minutes at 1 minute intervals. The slope of the curve provides a measure of cell death, which was expressed as fold change relative to control.
as §1, with “Rip3−/−” for “Rip3^−/−”
as §2, with “ug/ml” for “μg/ml”, “uM” for “μM”

[3] = test system: FADD-deficient variant of human Jurkat T cells treated with TNF-α; settings: SAR study of Teng et al. 2005, relative to Nec-1; cited from earlier work
[4] = test system: atherosclerotic lesions in ApoE−/− mice; experiment: Ex vivo autoradiography of aorta, en face and Oil Red O comparison; format: in vivo, mouse; settings: ApoE−/− mice, ˜1 mCi of tracer, 2 hr post injection
Text: Radiochemistry and ex vivo autoradiography study with ApoE^−/− mice. The tracer ^123I-Nec-1 (7-^123I-Nec-1) was synthesized by a Cu(I) catalyzed direct halogen exchange reaction with the precursor 7-Br-Nec-1 and Na^123I. Eight week-old female apolipoprotein E knockout (Apo E^−/−) mice were purchased from Charles River Laboratories and fed either a chow or western diet (TD.10885, Harlan Laboratories) for 2 months (total n=6 mice). 7-^123I-O-Nec-1 (37.0-55.5 MBq) was administrated intravenously into the mice under anesthetic. After 2 hr, the mice were euthanized and perfused with PBS followed by 10% formalin via left ventricle cannulation. Aorta was dissected from heart at the base using a dissecting microscope following removal of surrounding fat and connective tissue. En face specimens were immediately exposed to super resolution phosphor screens in an autoradiography cassette. After overnight exposure at room temperature, the screens were scanned with a Cyclone Phosphor Imager (Perkin Elmer, Downers Grove, Ill.). Images were analyzed using OptiQuant™ 5.0 software. The regions of interest (ROI) were drawn around the lesions on the aortic arch, and the counts in Digital Light Unit (DLU) and surface areas in mm^2 were measured. The DLU was converted to activity in μCi using a set of calibration standards with known activities, which were exposed and scanned on the same screen used for the aorta samples, as previously described (Zhao et al, 2007; Matter et al., 2006). The percentage injected dose (% ID) was calculated from dividing the activity (pCi) of the lesion by the injected activity. Activity density in % ID/m^2 was calculated and normalized by animal body weight to get % ID×kg/m^2. The areas of the lesions and the whole aortic arch in mm^2 were also recorded using the OptiQuant™ 5.0 software, and the percentage of lesion within the area of the aorta vessel wall was calculated.
Ex vivo autoradiography study with ApoE^−/− mice. Eight week-old female apolipoprotein E knockout (Apo E^−/−) mice were purchased from Charles River Laboratories (Charles River, Canada) and fed either a chow or western diet (TD.10885, Harlan Laboratories) for 2 months (n=3 per group). […] 7-^123I-O-Nec-1 (37.0-55.5 MBq) was administrated intravenously into the mice under anesthetic. After 2 hr, the mice were euthanized in a CO2 chamber. Using a Gilson Minipuls 2 peristaltic pump, the mice were perfused with 20 mL phosphate buffered saline (PBS) followed by 10 mL of 10% formalin via left ventricle cannulation. Perfusate was drained from a cut within the right atrium. Aorta was dissected from heart at the base using a dissecting microscope following removal of surrounding fat and connective tissue. For en face experiments aortic tissues were flattened by a longitudinal cut through one side of the aortic wall cutting through the carotids and the innominant artery until the aorta was split forming a Y-shaped structure.
The uptake and distribution of the tracer on aortic tissue was studied using digital autoradiography method. En face specimens were immediately exposed to super resolution phosphor screens in a Fisher Biotech autoradiography cassette. After overnight exposure at room temperature, the screens were scanned with a Cyclone Phosphor Imager (Perkin Elmer, Downers Grove, Ill.). Images were analyzed using OptiQuant™ 5.0 software. The regions of interest (ROI) were drawn around the lesions on the aortic arch, and the counts in Digital Light Unit (DLU) and surface areas in mm^2 were measured. The DLU was converted to activity in pCi using a set of calibration standards with known activities, which were exposed and scanned on the same screen used for the aorta samples. The percentage injected dose (% ID) was calculated from dividing the activity (pCi) of the lesion by the injected activity. Activity density in % ID/m^2 was calculated and normalized by animal body weight to get % ID×kg/m^2. […]

In the case of `CN1C(=O)NC(Cc2c[nH]c3c(Cl)cccc23)C1=O` (centres unmarked) [Nec-1s], the “atherosclerotic lesion area versus placebo (in words)” value ([1]; Western diet 4 weeks then 2 mg/kg/day for 6 weeks) is reported as “reduced en face lesion areas” and the “reduction of lesion necrotic core area compared to placebo” value ([1]; aortic sinus, 2 mg/kg/day, 6 weeks) is reported as 62%.
In the case of `COC(=O)C[C@H](NC(=O)[C@H](C)NC(=O)[C@@H](NC(=O)OCc1ccccc1)C(C)C)C(=O)CF` [zVAD.fmk] (Cbz-Val-Ala-Asp(OMe)-CH2F), the “cell death (LDH release), fold change relative to control” value ([2]; 100 μg/mL oxLDL + 25 μM zVAD.fmk, 24 h, mean±SEM) is reported as 5.7±0.7 fold and the “effect on cell death in response to oxLDL (in words)” value ([2]; oxLDL + pan caspase inhibitor zVAD.fmk 25 μM, 24 h) is reported as “significantly enhanced cell death”.
In the case of `O=C1NC(=S)NC1Cc1c[nH]c2ccccc12` (centres unmarked) [Nec-1i], the “necroptosis inhibitory activity (in words)” value [3] is listed as “completely abolished”.
For `CN1C(=O)C(Cc2c[nH]c3c(Cl)cccc23)NC1=S` (centres unmarked) [7-Cl-Nec-1], the “necroptosis inhibitory activity (in words)” value [3] is given as “increased activity”.
For `COC(=O)C[C@H](NC(=O)[C@H](C)NC(=O)[C@@H](NC(=O)[C@H](Cc1ccc(O)cc1)NC(=O)OCc1ccccc1)C(C)C)C(=O)CF` [zYVAD.fmk], the “effect on cell death in response to oxLDL (in words)” value ([2]; co-treatment with caspase-1 inhibitor zYVAD.fmk 20 uM) was “did not reduce or prevent cell death”.
For `COc1ccc([C@@H]2[C@@H]3CCc4ccc([123I])cc4C3=NN2C(C)=O)cc1` [8-^123I-Nec-3R], the “uptake in atherosclerotic lesions by autoradiography (in words)” value [4] was “significant lesion uptake”.
